Results published in US8883410B2, “Method for determining the stability of organic methyleneamines in the presence of semicarbazide-sensitive amine oxidase” (Sanofi, priority 2007, dated 2014).

Target: T1, human SSAO T1 (Gly27-Asn763), untagged (Homo sapiens, UniProt Q16853)
T1 construct: T1 (Gly27-Asn763) Representing the Enzyme Lacking the Membrane Anchoring Region; additional N-terminal Met (N); expressed in transfected cells; cell lysate
T1 sequence (Q16853 27-763): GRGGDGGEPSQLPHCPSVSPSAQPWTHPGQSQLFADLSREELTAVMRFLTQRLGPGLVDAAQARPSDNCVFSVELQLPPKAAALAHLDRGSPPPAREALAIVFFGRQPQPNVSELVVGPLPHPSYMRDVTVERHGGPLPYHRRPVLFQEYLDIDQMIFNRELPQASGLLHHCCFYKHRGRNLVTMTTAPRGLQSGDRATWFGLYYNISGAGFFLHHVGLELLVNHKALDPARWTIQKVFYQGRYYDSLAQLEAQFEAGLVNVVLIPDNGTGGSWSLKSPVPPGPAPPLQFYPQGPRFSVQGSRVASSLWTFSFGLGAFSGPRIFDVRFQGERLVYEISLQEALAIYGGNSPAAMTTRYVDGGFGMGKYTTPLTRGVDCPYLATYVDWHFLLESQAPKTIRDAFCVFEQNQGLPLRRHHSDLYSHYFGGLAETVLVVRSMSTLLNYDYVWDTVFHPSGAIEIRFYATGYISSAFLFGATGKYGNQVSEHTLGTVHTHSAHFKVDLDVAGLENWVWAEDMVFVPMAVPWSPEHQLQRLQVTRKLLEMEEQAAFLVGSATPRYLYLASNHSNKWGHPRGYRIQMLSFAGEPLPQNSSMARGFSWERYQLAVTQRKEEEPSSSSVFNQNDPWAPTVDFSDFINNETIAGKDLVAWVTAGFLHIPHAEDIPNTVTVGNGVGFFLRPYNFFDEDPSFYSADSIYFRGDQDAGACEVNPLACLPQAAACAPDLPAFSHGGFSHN
Experiment: Benzylamine stability in lysate of cells expressing T1 SSAO (untagged), LC/MS/MS
Assay type: in vitro ADME
Description: 3) T1 (Gly27-Asn763) Representing the Enzyme Lacking the Membrane Anchoring Region:
The expression constructs were prepared by cloning these PCR products into the pCDNA5-FRT-To-DEST vector (Invitrogen, Gateway System™). The forward and reverse DNA sequence of each construct was confirmed including expressed sequences and at least 100 base pairs either side of this. Stable cell lines for Flp-In CHO, Flp-In CHO T-Rex, and Flp-In HEK 293 (Invitrogen, Flp-In system™) were generated using these 6 constructs according to manufacturer's instructions. Cells were co-transfected with the regulatory vector, pOG44, and each of the pCDNA5-FRT-To-DEST constructs using Lipfectamine (Invitrogen) according to manufacturer's instructions. Thus, 18 cell lines were generated: CHO Flp-In full-length SSAO; CHO Flp-In full-length SSAO with C-terminal 6×HIS tag; CHO Flp-In T1 SSAO; CHO Flp-In T1 SSAO with C-terminal 6×HIS tag; CHO Flp-In T2 SSAO; CHO Flp-In T2 SSAO with C-terminal 6×HIS tag; CHO T-Rex Flp-In full-length SSAO; CHO T-Rex Flp-In full-length SSAO with C-terminal 6×HIS tag; CHO T-Rex Flp-In T1 SSAO; CHO T-Rex Flp-In T1 SSAO with C-terminal 6×HIS tag; CHO T-Rex Flp-In T2 SSAO; CHO Flp-In T2 SSAO with C-terminal 6×HIS tag; HEK 293 Flp-In full-length SSAO; HEK 293 Flp-In full-length SSAO with C-terminal 6×HIS tag; HEK 293 Flp-In T1 SSAO; HEK 293 Flp-In T1 SSAO with C-terminal 6×HIS tag; HEK 293 Flp-In T2 SSAO; HEK 293 Flp-In T2 SSAO with C-terminal 6×HIS tag.
Adherent CHO cells were cultured at 37° C., 5% CO2 in media containing Ham's F12, 10% fetal bovine serum, 2 mM L-glutamine, 1% Penicillin/Streptomycin, 300 μM hygromycin B. Adherent HEK 293 cells were cultured at 37° C., 5% CO2 in D-MEM (high glucose), 10% fetal bovine serum, 2 mM L-glutamine, and 200 μM hygromycin B. Stable transformants were identified by loss of zeocin resistance. Once the cells were 80% confluent, SSAO expression was induced by the addition of Tetracycline to 1 μg/mL. Following 18 hours, the cells were harvested using a trypsin treatment of 3 minutes, at room temperature. Cells were washed 3 times in phosphate buffered saline before flash freezing in liquid nitrogen.
For the preparation of cell lysate for activity testing, frozen cell pellets were resuspended in lysate buffer containing 10 mM Tris-HCl (pH 7.2), 150 mM NaCl, 1.5 mM MgCl2, 1% v/v NP-40 and incubated for 15 minutes on ice. Lysate was cleared by centrifugation 800×g for 10 minutes, 4° C. and stored in aliquots at −80° C. until use. Proteins were determined using Pierce Coomassie Protein Reagent, according to manufacturer's instructions.
For each assay run, 1 mL of cell lysate (1.5 mg/mL protein) was mixed with benzylamine to 2000 ng/mL final concentration. At each corresponding time point, […] the incubation mixture was transferred to a microcentrifuge tube (1.7 mL) and mixed with 50 μL of acetonitrile. The tubes were vortex mixed briefly to ensure complete mixing and then centrifuged at 10,000×g for 5 minutes. The supernatant was removed and 50 μL was transferred to an autosampler vial and mixed with 50 μL of water before LC/MS/MS analysis. Benzylamine remaining in the lysate was analyzed with LC/MS/MS method.
LC/MS/MS analysis was performed with a PE Sciex API 3000 mass spectrometer under the following conditions listed below and in Tables 1 and 2: […]

Benzylamine Remaining (%) (CHO Flp-In T-Rex lysate, tag One, 0 min): 100%
Benzylamine Remaining (%) (CHO Flp-In T-Rex lysate, tag One, 10 min): 104%
Benzylamine Remaining (%) (CHO Flp-In T-Rex lysate, tag One, 2 h): 92%
Benzylamine Remaining (%) (CHO Flp-In lysate, tag None, 0 min): 100%
Benzylamine Remaining (%) (CHO Flp-In lysate, tag None, 10 min): 109%
Benzylamine Remaining (%) (CHO Flp-In lysate, tag None, 2 h): 103%
Benzylamine Remaining (%) (HEK293 lysate, tag None, 0 min): 100%
Benzylamine Remaining (%) (HEK293 lysate, tag None, 10 min): 105%
Benzylamine Remaining (%) (HEK293 lysate, tag None, 2 h): 102%
SMILES: NCc1ccccc1 [Benzylamine]
